Reference: patent US20120053115A1, “Lantibiotic Carboxyamide Derivatives With Enhanced Antibacterial Activity” (Sentinella Pharmaceuticals, Inc., priority 2008, published 2012)

Tests used:
[1] = tested on: C. albicans ATCC 90028 (code 145); details: 0.02% albumine bovine serum, read after 24 h
Description: (§1) MICs were performed using the broth microdilution methodology following the NCCLS procedure (NCCLS Document M7-A4 Vol. 17 No. 2 January 1997) in presence of 0.02% albumine bovine serum with inocula of approximately 5×10^5 cfu/mL. The media employed included cation-adjusted Mueller-Hinton (MH) broth (Difco Laboratories, Detroit, Mich., USA) supplemented or not with 30% (v/v) bovine serum. Tests were read after 24 h incubation at 25-37° C.

[2] = tested on: E. faecalisVanA (code 560); details: E. faecalis VanA code 560; 0.02% albumine bovine serum; read after 24 h
Description: as §1

[3] = tested on: E. faecalisVanS (code 559); details: E. faecalis VanS code 559; 0.02% albumine bovine serum; read after 24 h
Description: as §1

[4] = tested on: E. faecium VanA (code 569); details: 0.02% albumine bovine serum, read after 24 h
Description: as §1

[5] = tested on: Enterococcus faecium VanS (code 568); details: E. faecium VanS code 568; 0.02% albumine bovine serum; read after 24 h
Description: as §1

[6] = tested on: Escherichia coli (code 47); details: 0.02% albumine bovine serum, read after 24 h
Description: as §1

[7] = tested on: S. epidermidis ATCC12228 (code 147); details: 0.02% albumine bovine serum, read after 24 h
Description: as §1

[8] = tested on: S. haemolyticus Met-R (code 1729); details: 0.02% albumine bovine serum, read after 24 h
Description: as §1

[9] = tested on: S. haemolyticus Met-S (code 1730); details: 0.02% albumine bovine serum, read after 24 h
Description: as §1

S. pyogenes (code 49) = details: 0.02% albumine bovine serum, read after 24 h
Description: as §1

[10] = tested on: Staphylococcus aureus VISA (code 3798); details: S. aureus VISA code 3798; 0.02% albumine bovine serum; read after 24 h
Description: as §1

[11] = tested on: Staphylococcus aureus VISA Met-R (code 3797); details: S. aureus VISA Met-R code 3797; 0.02% albumine bovine serum; read after 24 h
Description: as §1

| Structure (SMILES) | Minimal Inhibitory Concentrations [1] | Minimal Inhibitory Concentrations [2] | Minimal Inhibitory Concentrations [3] | Minimal Inhibitory Concentrations [4] | Minimal Inhibitory Concentrations [5] | Minimal Inhibitory Concentrations [6] | Minimal Inhibitory Concentrations [7] | Minimal Inhibitory Concentrations [8] | Minimal Inhibitory Concentrations [9] | Minimal Inhibitory Concentrations (S. pyogenes (code 49)) | Minimal Inhibitory Concentrations [10] | Minimal Inhibitory Concentrations [11] |
| --- | --- | --- | --- | --- | --- | --- | --- | --- | --- | --- | --- | --- |
| C=C1NC(=O)[C@H](C(C)C)NC(=O)[C@H](NC(=O)/C(=C/C)NC(=O)[C@@H](N)[C@@H](C)CC)CSC[C@@H](C(=O)N[C@H]2C(=O)N3CCC[C@H]3C(=O)NCC(=O)N[C@H](C(=O)N[C@H](C(=O)N[C@@H]3CSC[C@@H]4NC(=O)CNC(=O)[C@@H](CSC[C@@H]5NC(=O)[C@H](Cc6c[nH]cn6)NC(=O)[C@@H](CSC[C@@H](C(=O)NCCCN(C)C)NC5=O)NC4=O)NC(=O)CNC(=O)CNC(=O)CNC(=O)[C@H](CCC(=O)NCCCN(C)C)NC3=O)[C@@H](C)O)CS[C@H]2C)NC(=O)[C@H](Cc2c[nH]c3ccccc23)NC1=O [Compound 3] | 64 µg/mL | 4 µg/mL | 4 µg/mL | 1 µg/mL | 2 µg/mL | >128 µg/mL | 2 µg/mL | 1 µg/mL | <0.125 µg/mL | 2 µg/mL | 0.50 µg/mL | 1 µg/mL |
| C=C1NC(=O)[C@H](C(C)C)NC(=O)[C@H](NC(=O)/C(=C/C)NC(=O)[C@@H](N)[C@@H](C)CC)CSC[C@@H](C(=O)N[C@H]2C(=O)N3CCC[C@H]3C(=O)NCC(=O)N[C@H](C(=O)N[C@H](C(=O)N[C@@H]3CSC[C@@H]4NC(=O)CNC(=O)[C@@H](CSC[C@@H]5NC(=O)[C@H](Cc6c[nH]cn6)NC(=O)[C@@H](CSC[C@@H](C(=O)NCCN(C)C)NC5=O)NC4=O)NC(=O)CNC(=O)CNC(=O)CNC(=O)[C@H](CCC(=O)NCCN(C)C)NC3=O)[C@@H](C)O)CS[C@H]2C)NC(=O)[C@H](Cc2c[nH]c3ccccc23)NC1=O [Compound 4] | 64 µg/mL | 2 µg/mL | 4 µg/mL | 1 µg/mL | 1 µg/mL | >128 µg/mL | 2 µg/mL | 0.50 µg/mL | <0.125 µg/mL | 0.50 µg/mL | 0.50 µg/mL | 0.50 µg/mL |
| C=C1NC(=O)[C@H](C(C)C)NC(=O)[C@H](NC(=O)/C(=C/C)NC(=O)[C@@H](N)[C@@H](C)CC)CSC[C@@H](C(=O)N[C@H]2C(=O)N3CCC[C@H]3C(=O)NCC(=O)N[C@H](C(=O)N[C@H](C(=O)N[C@@H]3CSC[C@@H]4NC(=O)CNC(=O)[C@@H](CSC[C@@H]5NC(=O)[C@H](Cc6c[nH]cn6)NC(=O)[C@@H](CSC[C@@H](C(=O)NCc6cccc(OC)c6)NC5=O)NC4=O)NC(=O)CNC(=O)CNC(=O)CNC(=O)[C@H](CCC(=O)NCc4cccc(OC)c4)NC3=O)[C@@H](C)O)CS[C@H]2C)NC(=O)[C@H](Cc2c[nH]c3ccccc23)NC1=O [Compound 6] | 32 µg/mL | 2 µg/mL | 2 µg/mL | 1 µg/mL | 2 µg/mL | >128 µg/mL | 2 µg/mL | >128 µg/mL | 2 µg/mL | – | 1 µg/mL | 2 µg/mL |
| C=C1NC(=O)[C@H](C(C)C)NC(=O)[C@H](NC(=O)/C(=C/C)NC(=O)[C@@H](N)[C@@H](C)CC)CSC[C@@H](C(=O)N[C@H]2C(=O)N3CCC[C@H]3C(=O)NCC(=O)N[C@H](C(=O)N[C@H](C(=O)N[C@@H]3CSC[C@@H]4NC(=O)CNC(=O)[C@@H](CSC[C@@H]5NC(=O)[C@H](Cc6c[nH]cn6)NC(=O)[C@@H](CSC[C@@H](C(=O)NCCN)NC5=O)NC4=O)NC(=O)CNC(=O)CNC(=O)CNC(=O)[C@H](CCC(=O)NCCN)NC3=O)[C@@H](C)O)CS[C@H]2C)NC(=O)[C@H](Cc2c[nH]c3ccccc23)NC1=O [Compound 7] | 64 µg/mL | 2 µg/mL | 4 µg/mL | 1 µg/mL | 1 µg/mL | >128 µg/mL | 1 µg/mL | 0.25 µg/mL | <0.125 µg/mL | – | 0.50 µg/mL | 1 µg/mL |
| C=C1NC(=O)[C@H](C(C)C)NC(=O)[C@H](NC(=O)/C(=C/C)NC(=O)[C@@H](N)[C@@H](C)CC)CSC[C@@H](C(=O)N[C@H]2C(=O)N3CCC[C@H]3C(=O)NCC(=O)N[C@H](C(=O)N[C@H](C(=O)N[C@@H]3CSC[C@@H]4NC(=O)CNC(=O)[C@@H](CSC[C@@H]5NC(=O)[C@H](Cc6c[nH]cn6)NC(=O)[C@@H](CSC[C@@H](C(=O)NCCCCCCCCCCCC)NC5=O)NC4=O)NC(=O)CNC(=O)CNC(=O)CNC(=O)[C@H](CCC(=O)NCCCCCCCCCCCC)NC3=O)[C@@H](C)O)CS[C@H]2C)NC(=O)[C@H](Cc2c[nH]c3ccccc23)NC1=O [Compound 8] | 0.25 µg/mL | 1 µg/mL | 1 µg/mL | 2 µg/mL | 2 µg/mL | 2 µg/mL | 1 µg/mL | 1 µg/mL | 1 µg/mL | – | 1 µg/mL | 2 µg/mL |
| C=C1NC(=O)[C@H](C(C)C)NC(=O)[C@H](NC(=O)/C(=C/C)NC(=O)[C@@H](N)[C@@H](C)CC)CSC[C@@H](C(=O)N[C@H]2C(=O)N3CCC[C@H]3C(=O)NCC(=O)N[C@H](C(=O)N[C@H](C(=O)N[C@@H]3CSC[C@@H]4NC(=O)CNC(=O)[C@@H](CSC[C@@H]5NC(=O)[C@H](Cc6c[nH]cn6)NC(=O)[C@@H](CSC[C@@H](C(=O)Nc6cccc7ccccc67)NC5=O)NC4=O)NC(=O)CNC(=O)CNC(=O)CNC(=O)[C@H](CCC(=O)Nc4cccc5ccccc45)NC3=O)[C@@H](C)O)CS[C@H]2C)NC(=O)[C@H](Cc2c[nH]c3ccccc23)NC1=O [Compound 9] | 32 µg/mL | 16 µg/mL | 16 µg/mL | 16 µg/mL | 8 µg/mL | >128 µg/mL | 16 µg/mL | 16 µg/mL | 16 µg/mL | – | 32 µg/mL | 32 µg/mL |
| C=C1NC(=O)[C@H](C(C)C)NC(=O)[C@H](NC(=O)/C(=C/C)NC(=O)[C@@H](N)[C@@H](C)CC)CSC[C@@H](C(=O)N[C@H]2C(=O)N3CCC[C@H]3C(=O)NCC(=O)N[C@H](C(=O)N[C@H](C(=O)N[C@@H]3CSC[C@@H]4NC(=O)CNC(=O)[C@@H](CSC[C@@H]5NC(=O)[C@H](Cc6c[nH]cn6)NC(=O)[C@@H](CSC[C@@H](C(=O)NCCOC)NC5=O)NC4=O)NC(=O)CNC(=O)CNC(=O)CNC(=O)[C@H](CCC(=O)NCCOC)NC3=O)[C@@H](C)O)CS[C@H]2C)NC(=O)[C@H](Cc2c[nH]c3ccccc23)NC1=O [Compound 11] | 64 µg/mL | 16 µg/mL | 16 µg/mL | 8 µg/mL | 16 µg/mL | >128 µg/mL | 8 µg/mL | 32 µg/mL | 4 µg/mL | – | 4 µg/mL | 8 µg/mL |
| C=C1NC(=O)[C@H](C(C)C)NC(=O)[C@H](NC(=O)/C(=C/C)NC(=O)[C@@H](N)[C@@H](C)CC)CSC[C@@H](C(=O)N[C@H]2C(=O)N3CCC[C@H]3C(=O)NCC(=O)N[C@H](C(=O)N[C@H](C(=O)N[C@@H]3CSC[C@@H]4NC(=O)CNC(=O)[C@@H](CSC[C@@H]5NC(=O)[C@H](Cc6c[nH]cn6)NC(=O)[C@@H](CSC[C@@H](C(=O)NCCCCN(C)C)NC5=O)NC4=O)NC(=O)CNC(=O)CNC(=O)CNC(=O)[C@H](CCC(=O)NCCCCN(C)C)NC3=O)[C@@H](C)O)CS[C@H]2C)NC(=O)[C@H](Cc2c[nH]c3ccccc23)NC1=O [Compound 12] | 64 µg/mL | 4 µg/mL | 8 µg/mL | 1 µg/mL | 2 µg/mL | >128 µg/mL | 1 µg/mL | 1 µg/mL | <0.125 µg/mL | 0.50 µg/mL | 1 µg/mL | 2 µg/mL |
